Read-outs that look alike come from different tables or passages of the source.
How the values were obtained:
[1] = tested on: Key Broadleaf Weed and Crop Species; experiment: Post-Emergent Test II: postemergent herbicidal activity, visual rating after 14 d (Table 7); type: in vivo; conditions: post-emergence, 336 h; for pest or weed control at 35 g/ha: 35 g ai/ha; for pest or weed control at 70 g/ha: 70 g ai/ha; for pest or weed control at 140 g/ha: 140 g ai/ha
Summary of the method: (§1)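 Scoring is visual, 0-100, at 14 d after application, comparing treated with untreated plants. Application: overhead track spray at 187 L/ha onto seedlings at 1-2 true leaves, in surfactant/crop-oil carrier.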

[2] = tested on: Key Grass and Sedge Weeds as well as Grass Crops; experiment: Post-Emergent Test II: postemergent herbicidal activity, visual rating after 14 d (Table 8); type: in vivo; conditions: post-emergence, 336 h; for pest or weed control at 35 g/ha: 35 g ai/ha; for pest or weed control at 70 g/ha: 70 g ai/ha; for pest or weed control at 140 g/ha: 140 g ai/ha
Summary of the method: as §1

[3] = ABUTH: velvetleaf (Abutilon theophrasti), read-out: Visual Growth Reduction (%) 14 Days After Application ABUTH
[4] = AMARE: redroot pigweed (Amaranthus retroflexus), read-out: Visual Growth Reduction (%) 14 Days After Application AMARE
[5] = BRSNN: oilseed rape, canola (Brassica napus), read-out: Visual Growth Reduction (%) 14 Days After Application BRSNN
[6] = CHEAL: lambsquarters (Chenopodium album), read-out: Visual Growth Reduction (%) 14 Days After Application CHEAL
[7] = EPHHL: wild poinsettia (Euphorbia heterophylla), read-out: Visual Growth Reduction (%) 14 Days After Application EPHHL
[8] = HELAN: sunflower (Helianthus annuus), read-out: Visual Growth Reduction (%) 14 Days After Application HELAN
[9] = barnyardgrass (Echinochloa crus-galli), read-out: Visual Growth Reduction (%) 14 Days After Application, ECHCG
[10] = giant foxtail (Setaria faberi), read-out: Visual Growth Reduction (%) 14 Days After Application, SETFA
[11] = rice (Oryza sativa), read-out: Visual Growth Reduction (%) 14 Days After Application, ORYSA
[12] = wheat, spring (Triticum aestivum), read-out: Visual Growth Reduction (%) 14 Days After Application, TRZAS
[13] = yellow nutsedge (Cyperus esculentus), read-out: Visual Growth Reduction (%) 14 Days After Application, CYPES
[14] = maize, corn (Zea mays), read-out: Visual Growth Reduction (%) 14 Days After Application, ZEAMX

COC(=O)c1nc(-c2cccc3c2OC(F)(F)O3)cc(N)c1Cl [Compound 84]
pest or weed control at 35 g/ha [1, 3]: 45 to 59%
pest or weed control at 70 g/ha [1, 3]: 60 to 74%
pest or weed control at 140 g/ha [1, 3]: 75 to 84%
pest or weed control at 35 g/ha [1, 4]: 95 to 100%
pest or weed control at 70 g/ha [1, 4]: 95 to 100%
pest or weed control at 140 g/ha [1, 4]: 95 to 100%
pest or weed control at 35 g/ha [1, 5]: 60 to 74%
pest or weed control at 70 g/ha [1, 5]: 75 to 84%
pest or weed control at 140 g/ha [1, 5]: 85 to 94%
pest or weed control at 35 g/ha [1, 6]: 85 to 94%
pest or weed control at 70 g/ha [1, 6]: 85 to 94%
pest or weed control at 140 g/ha [1, 6]: 95 to 100%
pest or weed control at 35 g/ha [1, 7]: 0 to 29%
pest or weed control at 70 g/ha [1, 7]: 0 to 29%
pest or weed control at 140 g/ha [1, 7]: 0 to 29%
pest or weed control at 35 g/ha [1, 8]: 0 to 29%
pest or weed control at 70 g/ha [1, 8]: 30 to 44%
pest or weed control at 140 g/ha [1, 8]: 30 to 44%
pest or weed control at 35 g/ha [2, 9]: 0 to 29%
pest or weed control at 70 g/ha [2, 9]: 0 to 29%
pest or weed control at 140 g/ha [2, 9]: 0 to 29%
pest or weed control at 35 g/ha [2, 10]: 0 to 29%
pest or weed control at 70 g/ha [2, 10]: 0 to 29%
pest or weed control at 140 g/ha [2, 10]: 0 to 29%
pest or weed control at 35 g/ha [2, 11]: 0 to 29%
pest or weed control at 70 g/ha [2, 11]: 0 to 29%
pest or weed control at 140 g/ha [2, 11]: 0 to 29%
pest or weed control at 35 g/ha [2, 12]: 0 to 29%
pest or weed control at 70 g/ha [2, 12]: 0 to 29%
pest or weed control at 140 g/ha [2, 12]: 0 to 29%
pest or weed control at 35 g/ha [2, 13]: 0 to 29%
pest or weed control at 70 g/ha [2, 13]: 0 to 29%
pest or weed control at 140 g/ha [2, 13]: 0 to 29%

Nc1c(F)c(-c2ccc(Cl)c3c2OC(F)(F)O3)nc(C(=O)O)c1Cl [Compound 82]
pest or weed control at 70 g/ha [1, 3]: 60 to 74%
pest or weed control at 140 g/ha [1, 3]: 75 to 84%
pest or weed control at 70 g/ha [1, 4]: 95 to 100%
pest or weed control at 140 g/ha [1, 4]: 95 to 100%
pest or weed control at 70 g/ha [1, 5]: 95 to 100%
pest or weed control at 140 g/ha [1, 5]: 95 to 100%
pest or weed control at 70 g/ha [1, 6]: 95 to 100%
pest or weed control at 140 g/ha [1, 6]: 95 to 100%
pest or weed control at 70 g/ha [1, 7]: 0 to 29%
pest or weed control at 140 g/ha [1, 7]: 0 to 29%
pest or weed control at 70 g/ha [1, 8]: 85 to 94%
pest or weed control at 140 g/ha [1, 8]: 95 to 100%
pest or weed control at 35 g/ha ([1]; lambsquarters (Chenopodium album), read-out: Visual Growth Reduction (%) 14 Days After Application CHEAL): 95 to 100%
pest or weed control at 35 g/ha ([1]; oilseed rape, canola (Brassica napus), read-out: Visual Growth Reduction (%) 14 Days After Application BRSNN): 95 to 100%
pest or weed control at 35 g/ha ([1]; redroot pigweed (Amaranthus retroflexus), read-out: Visual Growth Reduction (%) 14 Days After Application AMARE): 95 to 100%
pest or weed control at 35 g/ha ([1]; sunflower (Helianthus annuus), read-out: Visual Growth Reduction (%) 14 Days After Application HELAN): 85 to 94%
pest or weed control at 35 g/ha ([1]; velvetleaf (Abutilon theophrasti), read-out: Visual Growth Reduction (%) 14 Days After Application ABUTH): 30 to 44%
pest or weed control at 35 g/ha ([1]; wild poinsettia (Euphorbia heterophylla), read-out: Visual Growth Reduction (%) 14 Days After Application EPHHL): 0 to 29%
pest or weed control at 35 g/ha ([2]; barnyardgrass (Echinochloa crus-galli), read-out: Visual Growth Reduction (%) 14 Days After Application ECHCG): 0 to 29%
pest or weed control at 70 g/ha [2, 9]: 0 to 29%
pest or weed control at 140 g/ha [2, 9]: 0 to 29%
pest or weed control at 35 g/ha ([2]; giant foxtail (Setaria faberi), read-out: Visual Growth Reduction (%) 14 Days After Application SETFA): 0 to 29%
pest or weed control at 70 g/ha [2, 10]: 0 to 29%
pest or weed control at 140 g/ha [2, 10]: 0 to 29%
pest or weed control at 35 g/ha ([2]; maize, corn (Zea mays), read-out: Visual Growth Reduction (%) 14 Days After Application ZEAMX): 45 to 59%
pest or weed control at 70 g/ha [2, 14]: 60 to 74%
pest or weed control at 140 g/ha [2, 14]: 60 to 74%
pest or weed control at 35 g/ha ([2]; rice (Oryza sativa), read-out: Visual Growth Reduction (%) 14 Days After Application ORYSA): 0 to 29%
pest or weed control at 70 g/ha [2, 11]: 30 to 44%
pest or weed control at 140 g/ha [2, 11]: 30 to 44%
pest or weed control at 35 g/ha ([2]; wheat, spring (Triticum aestivum), read-out: Visual Growth Reduction (%) 14 Days After Application TRZAS): 60 to 74%
pest or weed control at 70 g/ha [2, 12]: 60 to 74%
pest or weed control at 140 g/ha [2, 12]: 75 to 84%
pest or weed control at 35 g/ha ([2]; yellow nutsedge (Cyperus esculentus), read-out: Visual Growth Reduction (%) 14 Days After Application CYPES): 0 to 29%
pest or weed control at 70 g/ha [2, 13]: 30 to 44%
pest or weed control at 140 g/ha [2, 13]: 45 to 59%

COC(=O)c1nc(-c2cccc3c2OCC3)c(F)c(N)c1Cl [Compound 102]
pest or weed control at 35 g/ha [1, 3]: 0 to 29%
pest or weed control at 70 g/ha [1, 3]: 0 to 29%
pest or weed control at 140 g/ha [1, 3]: 45 to 59%
pest or weed control at 35 g/ha [1, 5]: 0 to 29%
pest or weed control at 70 g/ha [1, 5]: 0 to 29%
pest or weed control at 140 g/ha [1, 5]: 0 to 29%
pest or weed control at 35 g/ha [1, 6]: 95 to 100%
pest or weed control at 70 g/ha [1, 6]: 95 to 100%
pest or weed control at 140 g/ha [1, 6]: 95 to 100%
pest or weed control at 35 g/ha [1, 7]: 0 to 29%
pest or weed control at 70 g/ha [1, 7]: 0 to 29%
pest or weed control at 140 g/ha [1, 7]: 0 to 29%
pest or weed control at 35 g/ha [1, 8]: 75 to 84%
pest or weed control at 70 g/ha [1, 8]: 85 to 94%
pest or weed control at 140 g/ha [1, 8]: 85 to 94%
pest or weed control at 35 g/ha [2, 9]: 0 to 29%
pest or weed control at 70 g/ha [2, 9]: 0 to 29%
pest or weed control at 140 g/ha [2, 9]: 0 to 29%
pest or weed control at 35 g/ha [2, 10]: 0 to 29%
pest or weed control at 70 g/ha [2, 10]: 0 to 29%
pest or weed control at 140 g/ha [2, 10]: 0 to 29%
pest or weed control at 35 g/ha [2, 14]: 0 to 29%
pest or weed control at 70 g/ha [2, 14]: 0 to 29%
pest or weed control at 140 g/ha [2, 14]: 0 to 29%
pest or weed control at 35 g/ha [2, 11]: 0 to 29%
pest or weed control at 70 g/ha [2, 11]: 0 to 29%
pest or weed control at 140 g/ha [2, 11]: 0 to 29%
pest or weed control at 35 g/ha [2, 12]: 0 to 29%
pest or weed control at 70 g/ha [2, 12]: 0 to 29%
pest or weed control at 140 g/ha [2, 12]: 0 to 29%
pest or weed control at 35 g/ha [2, 13]: 0 to 29%
pest or weed control at 70 g/ha [2, 13]: 0 to 29%
pest or weed control at 140 g/ha [2, 13]: 0 to 29%

From patent US9149038B2, “4-amino-6-(heterocyclic)picolinates and 6-amino-2-(heterocyclic)pyrimidine-4-carboxylates and their use as herbicides” (Dow AgroSciences LLC, priority 2013, dated 2015)
